Source: BindingDB's records for doi:10.1016/j.bmcl.2005.03.029 (Duquesne University, 2005)

Biological target: T1, Dihydrofolate reductase (Escherichia coli (strain K12), UniProt O30463+P0ABQ4)
T1 sequence (P0ABQ4 whole entry): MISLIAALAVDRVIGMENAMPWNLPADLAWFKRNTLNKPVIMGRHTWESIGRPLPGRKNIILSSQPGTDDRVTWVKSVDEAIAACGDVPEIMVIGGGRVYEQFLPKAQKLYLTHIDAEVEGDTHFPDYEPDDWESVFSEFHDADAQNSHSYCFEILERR
T1 sequence (O30463 whole entry): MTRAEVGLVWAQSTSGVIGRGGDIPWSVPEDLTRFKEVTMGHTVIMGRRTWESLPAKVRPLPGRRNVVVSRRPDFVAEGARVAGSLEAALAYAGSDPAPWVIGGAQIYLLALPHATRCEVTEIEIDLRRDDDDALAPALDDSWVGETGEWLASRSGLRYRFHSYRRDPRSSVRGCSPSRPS
Assay: Inhibitory concentration against Escherichia coli dihydrofolate reductase

How did the IC50 turn out when `CN(Cc1ccc2c(n1)C(N)N=C(N)N2)c1ccc(C(=O)NC(CCC(=O)O)C(=O)O)cc1` (stereo unspecified) [2-{4-[(2,4-Diamino-4,4a-dihydro-pyrido[3,2-d]pyrimidin-6-ylmethyl)-methyl-amino]-benzoylamino}-pentanedioic acid] was run?
Its IC50 is 660 µM.
